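Five compound concentrations were applied to cells in 96-well plates for 48 hours; endpoints were derived by simple linear interpolation of the resulting dose-response curve. GI50 marks 50% less growth. Definition used: TGI = concentration required for complete inhibition of growth.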
Columns and labels:
Test in all cases: DTP human tumour cell line panel, 48 h
786-0 renal = tested on: 786-0 renal
A498 renal = tested on: A498 renal
A549 NSCLC = tested on: A549 NSCLC
ACHN renal = tested on: ACHN renal
BT-549 breast = tested on: BT-549 breast
CAKI-1 renal = tested on: CAKI-1 renal
CCRF-CEM leukemia = tested on: CCRF-CEM leukemia
COLO 205 colon = tested on: COLO 205 colon
DU-145 prostate = tested on: DU-145 prostate
EKVX NSCLC = tested on: EKVX NSCLC
HCC-2998 colon = tested on: HCC-2998 colon
HCT-116 colon = tested on: HCT-116 colon
HCT-15 colon = tested on: HCT-15 colon
HL-60(TB) leukemia = tested on: HL-60(TB) leukemia
HOP-62 NSCLC = tested on: HOP-62 NSCLC
HOP-92 NSCLC = tested on: HOP-92 NSCLC
HS 578T breast = tested on: HS 578T breast
HT29 colon = tested on: HT29 colon
IGROV1 ovarian = tested on: IGROV1 ovarian
K-562 leukemia = tested on: K-562 leukemia
KM12 colon = tested on: KM12 colon
LOX IMVI melanoma = tested on: LOX IMVI melanoma
M14 melanoma = tested on: M14 melanoma
MALME-3M melanoma = tested on: MALME-3M melanoma
MCF7 breast = tested on: MCF7 breast
MDA-MB-231 breast = tested on: MDA-MB-231 breast
MDA-MB-435 = tested on: MDA-MB-435
MOLT-4 leukemia = tested on: MOLT-4 leukemia
NCI-H226 lung = tested on: NCI-H226 lung
NCI-H23 lung = tested on: NCI-H23 lung
NCI-H460 lung = tested on: NCI-H460 lung
NCI-H522 lung = tested on: NCI-H522 lung
NCI/ADR-RES ovarian = tested on: NCI/ADR-RES ovarian
OVCAR-3 ovarian = tested on: OVCAR-3 ovarian
OVCAR-4 ovarian = tested on: OVCAR-4 ovarian
OVCAR-5 ovarian = tested on: OVCAR-5 ovarian
OVCAR-8 ovarian = tested on: OVCAR-8 ovarian
PC-3 prostate = tested on: PC-3 prostate
RXF 393 renal = tested on: RXF 393 renal
SF-268 CNS = tested on: SF-268 CNS
SF-295 CNS = tested on: SF-295 CNS
SF-539 CNS = tested on: SF-539 CNS
SK-MEL-2 melanoma = tested on: SK-MEL-2 melanoma
SK-MEL-28 melanoma = tested on: SK-MEL-28 melanoma
SK-OV-3 ovarian = tested on: SK-OV-3 ovarian
SN12C renal = tested on: SN12C renal
SNB-19 CNS = tested on: SNB-19 CNS
SNB-75 CNS = tested on: SNB-75 CNS
SR leukemia = tested on: SR leukemia
SW-620 colon = tested on: SW-620 colon
T-47D breast = tested on: T-47D breast
TK-10 renal = tested on: TK-10 renal
U251 CNS = tested on: U251 CNS
UACC-257 melanoma = tested on: UACC-257 melanoma
UACC-62 melanoma = tested on: UACC-62 melanoma
UO-31 renal = tested on: UO-31 renal
RPMI-8226 leukemia = tested on: RPMI-8226 leukemia

Cc1ccc(-c2nc3nc(-c4ccccc4)nc(N4CCCNCC4)c3o2)cc1
GI50 (786-0 renal): 1.52 µM
TGI (786-0 renal): 2.97 µM
GI50 (A498 renal): 1.53 µM
TGI (A498 renal): 3.13 µM
GI50 (A549 NSCLC): 1.65 µM
TGI (A549 NSCLC): 3.06 µM
GI50 (ACHN renal): 1.73 µM
TGI (ACHN renal): 3.12 µM
GI50 (BT-549 breast): 1.63 µM
TGI (BT-549 breast): 3.19 µM
GI50 (CAKI-1 renal): 1.73 µM
TGI (CAKI-1 renal): 3.22 µM
GI50 (CCRF-CEM leukemia): 1.89 µM
TGI (CCRF-CEM leukemia): 4.23 µM
GI50 (COLO 205 colon): 1.96 µM
TGI (COLO 205 colon): 3.66 µM
GI50 (DU-145 prostate): 1.82 µM
TGI (DU-145 prostate): 3.3 µM
GI50 (EKVX NSCLC): 1.75 µM
TGI (EKVX NSCLC): 3.29 µM
GI50 (HCC-2998 colon): 2.04 µM
TGI (HCC-2998 colon): 4.17 µM
GI50 (HCT-116 colon): 1.31 µM
TGI (HCT-116 colon): 2.65 µM
GI50 (HCT-15 colon): 1.58 µM
TGI (HCT-15 colon): 3.23 µM
GI50 (HL-60(TB) leukemia): 0.726 µM
TGI (HL-60(TB) leukemia): 2.49 µM
GI50 (HOP-62 NSCLC): 1.81 µM
TGI (HOP-62 NSCLC): 3.36 µM
GI50 (HOP-92 NSCLC): 1.44 µM
TGI (HOP-92 NSCLC): 3.01 µM
GI50 (HS 578T breast): 1.83 µM
TGI (HS 578T breast): 4.02 µM
GI50 (HT29 colon): 1.6 µM
TGI (HT29 colon): 3.08 µM
GI50 (IGROV1 ovarian): 1.74 µM
TGI (IGROV1 ovarian): 3.39 µM
GI50 (K-562 leukemia): 0.442 µM
TGI (K-562 leukemia): 1.86 µM
GI50 (KM12 colon): 1.77 µM
TGI (KM12 colon): 3.41 µM
GI50 (LOX IMVI melanoma): 1.76 µM
TGI (LOX IMVI melanoma): 3.29 µM
GI50 (M14 melanoma): 1.96 µM
TGI (M14 melanoma): 3.69 µM
GI50 (MALME-3M melanoma): 1.85 µM
TGI (MALME-3M melanoma): 3.38 µM
GI50 (MCF7 breast): 1.48 µM
TGI (MCF7 breast): 3.5 µM
GI50 (MDA-MB-231 breast): 1.81 µM
TGI (MDA-MB-231 breast): 3.32 µM
GI50 (MDA-MB-435): 1.93 µM
TGI (MDA-MB-435): 3.42 µM
GI50 (MOLT-4 leukemia): 1.44 µM
TGI (MOLT-4 leukemia): 3.15 µM
GI50 (NCI-H226 lung): 1.87 µM
TGI (NCI-H226 lung): 3.86 µM
GI50 (NCI-H23 lung): 1.89 µM
TGI (NCI-H23 lung): 3.8 µM
GI50 (NCI-H460 lung): 1.86 µM
TGI (NCI-H460 lung): 3.53 µM
GI50 (NCI-H522 lung): 1.73 µM
TGI (NCI-H522 lung): 3.39 µM
GI50 (NCI/ADR-RES ovarian): 2.17 µM
TGI (NCI/ADR-RES ovarian): 4.71 µM
GI50 (OVCAR-3 ovarian): 1.84 µM
TGI (OVCAR-3 ovarian): 3.32 µM
GI50 (OVCAR-4 ovarian): 1.59 µM
TGI (OVCAR-4 ovarian): 3.09 µM
GI50 (OVCAR-5 ovarian): 1.89 µM
TGI (OVCAR-5 ovarian): 3.37 µM
GI50 (OVCAR-8 ovarian): 2.06 µM
TGI (OVCAR-8 ovarian): 4.1 µM
GI50 (PC-3 prostate): 1.69 µM
TGI (PC-3 prostate): 3.17 µM
GI50 (RXF 393 renal): 1.69 µM
TGI (RXF 393 renal): 3.32 µM
GI50 (SF-268 CNS): 1.74 µM
TGI (SF-268 CNS): 3.63 µM
GI50 (SF-295 CNS): 1.77 µM
TGI (SF-295 CNS): 3.33 µM
GI50 (SF-539 CNS): 1.82 µM
TGI (SF-539 CNS): 3.31 µM
GI50 (SK-MEL-2 melanoma): 2.11 µM
TGI (SK-MEL-2 melanoma): 3.84 µM
GI50 (SK-MEL-28 melanoma): 1.84 µM
TGI (SK-MEL-28 melanoma): 3.28 µM
GI50 (SK-OV-3 ovarian): 1.81 µM
TGI (SK-OV-3 ovarian): 3.27 µM
GI50 (SN12C renal): 1.56 µM
TGI (SN12C renal): 3.06 µM
GI50 (SNB-19 CNS): 1.63 µM
TGI (SNB-19 CNS): 3.11 µM
GI50 (SNB-75 CNS): 1.36 µM
TGI (SNB-75 CNS): 2.68 µM
GI50 (SR leukemia): 0.222 µM
TGI (SR leukemia): 0.554 µM
GI50 (SW-620 colon): 1.55 µM
TGI (SW-620 colon): 3.17 µM
GI50 (T-47D breast): 1.73 µM
TGI (T-47D breast): 3.5 µM
GI50 (TK-10 renal): 1.73 µM
TGI (TK-10 renal): 3.14 µM
GI50 (U251 CNS): 1.54 µM
TGI (U251 CNS): 2.91 µM
GI50 (UACC-257 melanoma): 1.72 µM
TGI (UACC-257 melanoma): 3.26 µM
GI50 (UACC-62 melanoma): 1.68 µM
TGI (UACC-62 melanoma): 3.14 µM
GI50 (UO-31 renal): 1.55 µM
TGI (UO-31 renal): 2.96 µM

N#CSC1CCCCNC1=O (centres undefined)
TGI (786-0 renal): 32.6 µM
TGI (A549 NSCLC): 60 µM
TGI (ACHN renal): 29.9 µM
TGI (BT-549 breast): 21.5 µM
TGI (CAKI-1 renal): 31.8 µM
TGI (CCRF-CEM leukemia): 34.8 µM
TGI (COLO 205 colon): 30.2 µM
TGI (DU-145 prostate): 32.8 µM
TGI (EKVX NSCLC): 37.5 µM
TGI (HCC-2998 colon): 32.4 µM
TGI (HCT-116 colon): > 100 µM
TGI (HCT-15 colon): 28.6 µM
TGI (HL-60(TB) leukemia): 87.4 µM
TGI (HOP-62 NSCLC): 41.8 µM
TGI (HOP-92 NSCLC): 20.9 µM
TGI (HS 578T breast): 50.4 µM
TGI (HT29 colon): 26.5 µM
TGI (K-562 leukemia): 62.3 µM
TGI (KM12 colon): 31.3 µM
TGI (LOX IMVI melanoma): > 100 µM
TGI (M14 melanoma): 39.3 µM
TGI (MALME-3M melanoma): 31.4 µM
TGI (MCF7 breast): 18.3 µM
TGI (MDA-MB-231 breast): 33 µM
TGI (MDA-MB-435): 34.8 µM
TGI (MOLT-4 leukemia): 15 µM
TGI (NCI-H226 lung): 25.7 µM
TGI (NCI-H23 lung): 24.4 µM
TGI (NCI-H460 lung): 28.7 µM
TGI (NCI-H522 lung): 21.3 µM
TGI (NCI/ADR-RES ovarian): 29.1 µM
TGI (OVCAR-3 ovarian): 29.5 µM
TGI (OVCAR-5 ovarian): 13.2 µM
TGI (OVCAR-8 ovarian): 33.6 µM
TGI (PC-3 prostate): 34 µM
TGI (RPMI-8226 leukemia): 29.3 µM
TGI (RXF 393 renal): 34 µM
TGI (SF-268 CNS): 26.2 µM
TGI (SF-295 CNS): 30.7 µM
TGI (SF-539 CNS): 26.5 µM
TGI (SK-MEL-2 melanoma): 27 µM
TGI (SK-MEL-28 melanoma): 28.1 µM
TGI (SK-OV-3 ovarian): 21.9 µM
TGI (SN12C renal): 30.8 µM
TGI (SNB-19 CNS): 30.2 µM
TGI (SR leukemia): 38.9 µM
TGI (T-47D breast): 52.5 µM
TGI (TK-10 renal): 30.7 µM
TGI (U251 CNS): 42.6 µM
TGI (UACC-257 melanoma): 34.6 µM
TGI (UACC-62 melanoma): 29.1 µM
TGI (UO-31 renal): 31.1 µM
